{"source": "patent US20060135480A1", "about": "“Derivatives of succinic and glutaric acids and analogs thereof useful as inhibitors of phex” (Enobia Pharma, priority 2002, published 2006)", "key": {"sPHEX": {"molecular_target": "T1, sPHEX (Homo sapiens, UniProt P78562)", "T1 construct": "The soluble form of the metallopeptidase PHEX (sPHEX) was purified to homogeneity; made in house", "T1 sequence (P78562 53-749 limits assumed)": "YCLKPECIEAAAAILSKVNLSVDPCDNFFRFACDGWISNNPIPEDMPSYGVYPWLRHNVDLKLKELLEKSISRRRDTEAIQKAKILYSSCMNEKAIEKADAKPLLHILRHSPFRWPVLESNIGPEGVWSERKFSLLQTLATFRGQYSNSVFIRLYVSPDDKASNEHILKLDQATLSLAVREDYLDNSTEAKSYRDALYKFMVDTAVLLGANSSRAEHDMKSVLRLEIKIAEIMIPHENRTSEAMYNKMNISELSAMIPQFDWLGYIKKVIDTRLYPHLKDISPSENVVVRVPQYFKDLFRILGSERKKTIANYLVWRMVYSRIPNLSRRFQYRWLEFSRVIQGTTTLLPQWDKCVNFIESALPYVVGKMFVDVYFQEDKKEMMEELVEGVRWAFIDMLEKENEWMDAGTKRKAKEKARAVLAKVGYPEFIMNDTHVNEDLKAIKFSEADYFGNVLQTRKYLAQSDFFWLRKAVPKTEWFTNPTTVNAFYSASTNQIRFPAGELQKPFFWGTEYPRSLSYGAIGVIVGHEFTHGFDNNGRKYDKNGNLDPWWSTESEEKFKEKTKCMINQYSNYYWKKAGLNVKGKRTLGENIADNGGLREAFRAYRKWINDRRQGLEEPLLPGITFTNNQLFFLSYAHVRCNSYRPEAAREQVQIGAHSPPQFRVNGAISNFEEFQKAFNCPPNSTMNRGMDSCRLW", "assay": "Protection of PHEX substrate PTHrP107-139 from sPHEX degradation (RP-HPLC)", "format": "biochemical", "settings": "1×10^−5 M inhibitor, 15 min preincubation, 30 min at 37° C.", "experimental": "In general, in order to show inhibition of sPHEX, the enzyme is incubated in the absence or the presence of the inhibiting compound, and a substrate is added in conditions that are suitable for sPHEX enzymatic activity. Hydrolysis of the substrate in the absence or the presence of the inhibiting compound is monitored.\nFor example, 1.0 μg of purified sPHEX was first incubated at 37° C. for 15 min with or without 1×10^−5M of compound MH-2-64C (FIG. 1) in 90 μl 50 mM MES (2-(N-morpholino) ethanesulfonic acid) pH 6.5, 150 mM NaCl. Then, 2.5 μg of peptide PTHrP107-139 in 10 μl of the same buffer were added and the incubation continued for 30 min. The reaction mixture also contained 1.3 μg of the amino acid Phe which was used as an internal standard. After the incubation period, the reaction was stopped by the addition of EDTA to a final concentration of 5 mM. Detection of cleavage products was performed by reverse phase high performance liquid chromatography (RP-HPLC) on a C18 μBondapak™ analytical column (Waters, Mississauga, ON, Canada) with a UV detector set at 220 nm. […] Results were quantified by comparing the area under the undigested peak of PTHrP107-139, after normalization for the amount of Phe present in the sample."}, "[1]": {"system": "primary rat calvaria osteoblasts", "assay": "Mineralization by 45Ca incorporation in cultured rat calvaria osteoblasts", "format": "cell-based", "settings": "fetal rat calvaria cells", "experimental": "In general, to show stimulation of mineralization in cultured cells by PHEX inhibitors, cells of osteoblast lineage are incubated in conditions that favors the mineralization process in the absence and the presence of the PHEX inhibiting compound. This cellular model is used to study osteoblasts proliferation and differentiation, and to follow the mineralization process.\nMineralization can be monitored by standard techniques such as von Kossa staining or ^45Ca incorporation in the extracellular matrix.\nFor example, cells were enzymatically isolated from the calvaria of 21-day old Wistar rat fetuses by sequential digestion with collagenase as described previously (Bellows et al., 1986). Cells obtained from the last four of the five digestion steps were plated in T-75 flasks in α-MEM containing 15% FBS (Cansera) and antibiotics comprising 100 μg/ml penicillin G (Sigma-Aldrich), 50 μg/ml gentamycin (Life Technologies), and 0.3 μg/ml fungizone (Life Technologies). […]\nAt day 18, 21 and 25 of rat calvaria osteoblasts culture, mineralization was determined by ^45Ca incorporation assay as described previously (Ecarot et Desbarats, 1999). […] Cell layers were solubilized in 12.5% trichloroacetic acid and aliquots counted for radioactivity."}}}
{"smiles": "O=C(O)CC(CC(=O)NO)C(=O)NCCc1ccc(-c2ccccc2)cc1", "note": "(stereo not drawn) [Example 126, 3-(2-Biphenyl-4-yl-ethylcarbamoyl)4-hydroxycarbamoyl-butyric acid]", "values": [{"measurement": "degradation of PTHrP107-139 by sPHEX", "setting": "sPHEX", "value": "fully prevented"}, {"measurement": "45Ca incorporation by the cells (mineralization)", "setting": "[1]; 1×10^−5 M (high dose)", "value": "reduced significantly"}, {"measurement": "45Ca incorporation by the cells (mineralization)", "setting": "[1]; lower concentrations, low dose (10^−6 M)", "value": "significantly stimulated"}]}
